{"source": "patent US10076117B2", "about": "“Pesticide formulation comprising a water soluble active ingredient and a penetration enhancer and use of the same” (ROTAM AGROCHEM INTERNATIONAL COMPANY LIMITED, priority 2014, dated 2018)", "origin": "cited, not measured here", "settings": "water", "data": [{"smiles": "COP(=O)(NC(C)=O)SC", "note": "(stereo not shown) [acephate]", "values": [{"measurement": "solubility", "result": "650 g in 1 L of water"}]}]}
